Values quoted from earlier work, collected in patent publication US11459613B2, “Methods of characterizing resistance to modulators of Cereblon” (THE BRIGHAM AND WOMEN'S HOSPITAL, INC., priority 2015, dated 2022).

Details: lenalidomide in combination with dexamethasone, front-line therapy, standard-risk multiple myeloma

With Nc1cccc2c1CN(C1CCC(=O)NC1=O)C2=O (stereo not shown) [lenalidomide] as the compound, how does the “disease progression develops after initiating treatment (on average)” value read?
Its value is 11 months.
